Test results reported in patent publication US6500849B1, “1-alkyl-, 1-alkenyl-, and 1-alkynylaryl-2-amino 1,3-propanediols and related compounds” (Aventis Pharmaceuticals Inc., priority 1990, dated 2002).

Columns and labels:
E. coli = experiment: Aerobic antibacterial assay (agar dilution, Mueller-Hinton agar); type: cell-based
Bact. vulgatus = experiment: Anerobic antibacterial assay (agar dilution, Wilkins-Chalgren agar); type: cell-based; settings: Bact. vulgatus 1446; anaerobic; 48 hours at 37° C.
Bact. thetaiotaom. = experiment: as above; type: cell-based; settings: anaerobic, 48 hours at 37° C.
Protein kinase C = Protein kinase C assay (32P incorporation into Type III histone); type: biochemical, rat; settings: rat brain protein kinase C; phosphatidylserine/diacylglycerol stimulated; read-out: Protein Kinase Inhibitory Activity IC50
Description: (see U. Kikkawa, et al., Biochemical and Biophysical Research Communications, 135, 636 (1986) and R. M. Bell, et al. “Methods in Enzymology, Hormone Action,” Part J, P.M. Conn, Ed., Academic Press, Inc., New York, N.Y. 1986, page 353). Protein kinase C enzyme extract was prepared from the brain of male Wistar rats weighing 180 to 200 g and purified by the method of U. Kikkawa, et al., ibid. 636. The purified extract was stored at −80° C., and aliquots were used in the protein kinase C assay performed by a modification of the method of R. M. Bell, et al., ibid. al 354. To perform the assay, duplicate aliquots of duplicate samples are employed. Basal or unstimulated protein kinase C, phosphatidylserine/diacylglycerol stimulated protein kinase C, and test samples are run in each assay. […] The assay tubes were allowed to warm to 25° C. and an 8 μl mixture of adenosine 5′-triphosphate (100 μM) and ^32P-adenosine triphosphate (1 to 2×10^5 counts per minute) was added to each tube for a final volume of 80 μl per tube. After 2 min, the reaction (the incorporation of phosphorous into Type III histone) was terminated by spotting the assay mixture on phosphocellulose paper. The spots are cut out of the paper and the radioactivity (counts per min) of each spot was determined in a scintillation counter.

Klebsiella spp. = experiment: Aerobic antibacterial assay (agar dilution, Mueller-Hinton agar); settings: aerobic, 24 hours at 37° C.
Bact. fragilis = experiment: Anerobic antibacterial assay (agar dilution, Wilkins-Chalgren agar); type: cell-based; settings: anaerobic, 48 hours at 37° C.
Bact. ovatus = experiment: as above; type: cell-based; settings: Bact. ovatus 103; anaerobic; 48 hours at 37° C.
[1] = system: female Swiss Webster mice; experiment: TPA-induced ear edema assay; type: in vivo; settings: 10 μg/ear topical, after about 5 hours
Description: In the TPA-induced ear edema assay, TPA (12-O-tetradecanoylphorbol-13-acetate) was dissolved in 30/70 propylene glycol/ethanol and was applied to the right ear of groups of 6 female Swiss Webster mice, which were housed together in a cage under standard conditions for 1 week prior to use with food and water ad lib, at a volume of 20 μl so that a total of 10 μg of TPA is delivered to the inner and outer surfaces of the ear. The test compound was dissolved in the vehicle and was applied to the right ear (the inner and outer surface) at a volume of 20 μl so that a total of 10 μg of the compound was delivered to the ear. After about 5 hours, the animals were sacrificed, a 4 mm diameter plug was taken from each ear and weighed. The difference between the right and left ear plug weights for each animal was determined. The antiinflammatory activity of the test compound is expressed as the mean percent change in the ear plug weight of the treated animals compared to the mean percent change in the plug weight of the control animals.

Strept. faecium = experiment: Aerobic antibacterial assay (agar dilution, Mueller-Hinton agar); settings: Strept. faecium D; aerobic; 24 hours at 37° C.
Bact. distasonis = experiment: Anerobic antibacterial assay (agar dilution, Wilkins-Chalgren agar); type: cell-based; settings: Bact. distasonis 1366; anaerobic; 48 hours at 37° C.
Propionibact. acnes = experiment: as above; type: cell-based; settings: anaerobic, 48 hours at 37° C.
Clost. tetani = experiment: as above; type: cell-based; settings: Clost. tetani 19406; anaerobic; 48 hours at 37° C.
Peptostr. anaerobius = experiment: as above; type: cell-based; settings: Peptostr. anaerobius 932; anaerobic; 48 hours at 37° C.
Strept. pyogenes = experiment: Aerobic antibacterial assay (agar dilution, Mueller-Hinton agar); settings: aerobic, 24 hours at 37° C.
E. cloacae = experiment: as above; settings: aerobic, 24 hours at 37° C.
Fusobact. varium = experiment: Anerobic antibacterial assay (agar dilution, Wilkins-Chalgren agar); type: cell-based; settings: anaerobic, 48 hours at 37° C.
[2] = system: female Swiss Webster mice; experiment: Arachidonic acid-induced ear edema assay; type: in vivo; settings: 1 mg/ear topical, arachidonic acid 4 mg/ear
Description: In the arachidonic acid-induced ear edema assay, the test compound was dissolved in 30/70 propylene glycol/ethanol and was applied to both ears of groups of 6 female Swiss Webster mice, which were housed together in a cage under standard conditions for 1 week prior to use with food and water ad lib, at a volume of 20 μl so that a total of 1.0 mg of test compound was delivered to each ear over the inner and outer surfaces. The same volume (20 μl) of vehicle was applied to each ear of a control group of mice. After 30 minutes, arachidonic acid was applied to the right ear of each mouse of each group in the amount of 4 mg/ear. Vehicle was applied to the left ear of each mouse of each group at a volume of 20 μl/ear. After an additional hour, the mice were sacrificed and a 4 mm plug was taken from each ear and weighed. The difference between the right and left ear plugs was determined for each animal. The antiinflammatory activity of the test compound is expressed as the mean percent change in the ear plug weight of the treated animals relative to the mean percent change in weights of control animals' ear. Antiinflammatory activity of representative compounds of the present invention as determined in this assay are presented below in Table 3.

Staph. aureus = experiment: Aerobic antibacterial assay (agar dilution, Mueller-Hinton agar); settings: aerobic, 24 hours at 37° C.
S. typhimurium = experiment: as above; settings: S. typhimurium; aerobic; 24 hours at 37° C.
Clost. perfringens = experiment: microbe, parasite or virus in culture; type: cell-based; settings: Clost. perfringens 194; anaerobic; 48 hours at 37° C.

CCCCCCCCCCCCC/C=C/[C@@H](O)[C@@H](N)CO [D-erythro-sphingosine, reference compound]
>100.0 mg/L: Antibacterial activity (MIC, mg/l) (E. coli; E. coli 1507E, 24 hours at 37° C.) | Antibacterial activity (MIC, mg/l) (E. coli; E. coli DC0, 24 hours at 37° C.) | Antibacterial activity (MIC, mg/l) (E. coli; E. coli O 78, 24 hours at 37° C.) | Antibacterial activity (MIC, mg/l) (E. coli; E. coli TEM, 24 hours at 37° C.) | Antibacterial activity (MIC, mg/l) (Klebsiella spp.; Klebsiella spp. 1522E) | Antibacterial activity (MIC, mg/l) (E. cloacae; E. cloacae P99) | Antibacterial activity (MIC, mg/l) (S. typhimurium)
+9%: Antiinflammatory Activity Percent Decrease in Ear Plug Weight at 1 mg/ear [2]
25.0 mg/L: Antibacterial activity (MIC, mg/l) (E. coli; E. coli DC2, 24 hours at 37° C.) | Antibacterial activity (MIC, mg/l) (Bact. vulgatus) | Antibacterial activity (MIC, mg/l) (Bact. thetaiotaom.; Bact. thetaiotaom. 123) | Antibacterial activity (MIC, mg/l) (Bact. thetaiotaom.; Bact. thetaiotaom. 1428) | Antibacterial activity (MIC, mg/l) (Bact. thetaiotaom.; Bact. thetaiotaom. 1445) | Antibacterial activity (MIC, mg/l) (Klebsiella spp.; Klebsiella spp. 1082E) | Antibacterial activity (MIC, mg/l) (Bact. fragilis; Bact. fragilis 312) | Antibacterial activity (MIC, mg/l) (Bact. fragilis; Bact. fragilis 1313) | Antibacterial activity (MIC, mg/l) (Bact. fragilis; Bact. fragilis 17390) | Antibacterial activity (MIC, mg/l) (Bact. fragilis; Bact. fragilis 18125) | Antibacterial activity (MIC, mg/l) (Bact. fragilis; Bact. fragilis 19016) | Antibacterial activity (MIC, mg/l) (Strept. faecium) | Antibacterial activity (MIC, mg/l) (Strept. pyogenes; Strept. pyogenes 77 A) | Antibacterial activity (MIC, mg/l) (Fusobact. varium; Fusobact. varium 3085) | Antibacterial activity (MIC, mg/l) (Fusobact. varium; Fusobact. varium 5262) | Antibacterial activity (MIC, mg/l) (Staph. aureus; Staph. aureus 285) | Antibacterial activity (MIC, mg/l) (Staph. aureus; Staph. aureus 503) | Antibacterial activity (MIC, mg/l) (Staph. aureus; Staph. aureus SG511)
6.7 µM: IC50 (Protein kinase C)
46%: Antiinflammatory Activity Percent Decrease in Ear Plug Weight at 10 μg/ear [1]
12.5 mg/L: Antibacterial activity (MIC, mg/l) (Bact. fragilis; Bact. fragilis 960) | Antibacterial activity (MIC, mg/l) (Bact. ovatus) | Antibacterial activity (MIC, mg/l) (Bact. distasonis) | Antibacterial activity (MIC, mg/l) (Propionibact. acnes; Propionibact. acnes 6919) | Antibacterial activity (MIC, mg/l) (Propionibact. acnes; Propionibact. acnes 6922) | Antibacterial activity (MIC, mg/l) (Peptostr. anaerobius) | Antibacterial activity (MIC, mg/l) (Strept. pyogenes; Strept. pyogenes 308 A)
6.25 mg/L: Antibacterial activity (MIC, mg/l) (Clost. perfringens)
50.0 mg/L: Antibacterial activity (MIC, mg/l) (Clost. tetani) | Antibacterial activity (MIC, mg/l) (E. cloacae; E. cloacae 1321E)
